Assay results published in patent US8361970B2, “Growth factor binding molecules” (University of South Florida, priority 2000, dated 2013).
Where “and” joins values, the source holds several entries; their conditions need not be identical. Identical values can stand only once. Like-named read-outs stand apart in the source and are kept apart here. Positions of bridges follow the written chain, without caps; N, C: chain ends. Non-standard residues stand in square brackets, D forms with d. d2Nal = N[C@H](Cc1ccc2ccccc2c1)C(=O)O; dAbu = CC[C@@H](N)C(=O)O

Key:
Assay type in all cases: cell-based
[1] = test system: VEGF-stimulated Flk-1 tyrosine phosphorylation; assay: Inhibition of VEGF-stimulated Flk-1 tyrosine phosphorylation in Flk-1/3T3 cells; conditions: Flk-1/3T3, VEGF stimulated; read-out: (IC50) Inhibition Flk-1-Y-P
Description: (§1) Starved NIII 3T3 cells (PDGF-BB and PDGF-AA), NIH 3T3 cells overexpressing either EGFR (EGF) or Flk-1 (VEGF) are pre-treated with the indicated concentrations of GFB-111 for 5 minutes before 10 minutes of stimulation with PDGF-BB (10 ng/ml), PDGF-AA (10 ng/ml), EGF (100 ng/ml) and VEGF (50 ng/ml). Cell lysates are run on SDS-PAGE gels, then transferred to nitrocellulose and Western blotted with anti-phosphotyrosine (4G 10) or anti-phosphorylated Erk1/Erk2 (New England Biolabs).
(§2) In order to identify molecules that would bind vascular endothelial growth factor (VEGF), Flk-1/3T3 cell-based assay is used that relies on VEGF-stimulation of its receptor, Flk-1, tyrosine phosphorylation and subsequent MAP-kinase activation. The assay used herein identical to that used for PDGF, except that NIH 3T3 cells that overexpress Flk-1 are used. GFB-116, which has four identical loops with the sequence GKGK (SEQ ID NO. 10) is shown to be very potent and selective toward blocking the ability of VEGF to stimulate Flk-1 tyrosine phosphorylation and subsequent MAP-kinase activation as measured by phospho erk-1 and erk-2 also referred to in the Table as p42 and p44 (Table 4A). A preferred embodiment of the invention is a compound that binds to a vascular endothelial growth factor, of the general structure III (above) in which R is n-butyl, n-propyl, or benzyl, and X comprise covalently attached identical cyclic peptide loops wherein R1, R2, R3, and R4 are each amino acid side chains, as broadly defined above, that define a tetrapeptide sequence, wherein said tetrapeptide is covalently attached at the amino and carboxy termini of said tetrapeptide to 3-aminomethyl-5-aminobenzamide linking group, and wherein said tetrapeptide sequence is GKGK (SEQ ID NO. 10), GDGY (SEQ ID NO. 6), or functionally related derivatives thereof.

[2] = test system: IGF-1 stimulated MAP kinase activation; assay: Inhibition of IGF-1 stimulated MAP kinase (p42/p44) activation in IGFR/3T3 cells; conditions: 100 μM; IGFR/3T3, IGF-1 stimulated
Description: (§3) In other experiments, starved NIH 3T3 cells (PDGF-AA, PDGF-BB, aFGF, bFGF), NIH 3T3 cells overexpressing EGFR. IGF-1R or Flk-1 and the human breast carcinoma SkBr3 that overexpresses ErbB2 (HRGβ) are pretreated with GFB-111 (100 μM) for 5 min before 10 min stimulation with the indicated growth factors at the concentrations shown above and aFGF (10 ng/ml), bFGF (50 ng/ml), IGF-1 (50 ng/ml) and HRGβ (10 ng/ml). Cell lysates are then immunoblotted with anti-phospho Erk1/Erk2 as described above.
(§4) The ability of the GFB library to block the ability of IGF-1 to stimulate the IFG-1 R tyrosine phosphorylation and MAP kinase activation is evaluated using the cell assay described above with IGF-1R/3T3 cells as target cell. […] A preferred embodiment of the invention is a compound that binds to an insulin-like growth factor-1, of the general structure III, wherein R is n-butyl, n-propyl, or benzyl, and X1, X2, X3, and X4 optionally comprise identical cyclic peptide loops of the general structure II, and wherein R1, R2, R3, and R4 are each amino acid side chains that define a tetrapeptide sequence, wherein said tetrapeptide is covalently attached at the amino and carboxy termini of said tetrapeptide to a 3-aminomethyl-5-aminobenzamide linking group.

[3] = test system: VEGF-stimulated MAP kinase activation; assay: Inhibition of VEGF-stimulated MAP kinase (p42/p44, Erk2/Erk1) activation in Flk-1/3T3 cells; conditions: Flk-1/3T3, VEGF stimulated
Description: as §1, §3, §2

[4] = test system: PDGF-stimulated PDGFR tyrosine phosphorylation; assay: Inhibition of PDGF-stimulated PDGFR tyrosine phosphorylation in NIH 3T3 cells (anti-phosphotyrosine Western blot); conditions: 5 min pretreatment, PDGF 10 ng/ml 10 min, read-out: (IC50) Inhibition PDGFR-Y-P
Description: Starved NIH 3T3 cells are pretreated with various growth factor binding agents (0-100 μM) for 5 min before stimulation with PDGF (10 ng/mL) for 10 min. The cells are then harvested and lysed, and the proteins from the lysates separated by SDS-PAGE and immunoblotted with an anti-phosphotyrosine antibody (4G10: Upstate Biotechnology, Lake Placid, N.Y.). The phosphotyrosine PDGF receptor bands are scanned, and the concentrations of growth factor binding molecules that inhibited the ability of PDGF to stimulate PDGFR tyrosine phosphorylation by 50% are determined.
as §1
A novel series of protein surface binding agents are prepared that bind PDGF and disrupt its signaling function. The molecules are composed of a central calix[4] arene scaffold to which is attached four peptide loop domains (FIG. 1). The peptide loop component is based on a cyclic hexapeptide in which two residues are replaced by a 3-aminomethylbenzoate dipeptide mimetic containing a 5-amino substituent for attachment to the scaffold. The resulting molecules (as shown in Table 1) contain a functionalized and variable surface approximately 500 Å^2 in area. Several peptide loop sequences are synthesized (Table 1) to provide molecular surfaces with negatively and positively charged as well as hydrophobic regions designed to bind to complementary areas on the target growth factor. To identify PDGF binding molecules from this library, a cell-based screening assay is developed with NIH 3T3 cells to detect molecules capable of blocking PDGF-BB-induced tyrosine autophosphorylation of the PDGF receptor. The ability of the identified molecules to bind PDGF-BB and inhibit interaction with its receptor is then confirmed biochemically. Starved NIH 3T3 cells are pretreated for 5 min with the synthetic molecules prior to stimulation with PDGF for 10 min. The effects of the molecules on PDGF-stimulated receptor tyrosine phosphorylation are determined by the antiphosphotyrosine Western blotting as described in Table 1. […] GFB-111 has four-fold symmetry containing 4 identical peptide loops with negative and hydrophobic residues, GlyAspGlyTyr (GDGY) (SEQ ID NO. 6), that are designed to be complementary to the PDGF surface involved in binding to PDGFR. The area of PDGF-BB that binds PDGFR is composed primarily of positive and hydrophobic residues.
Starved NIH 3T3 cells are pretreated with the various GFBs (0-100 μM) for 5 min. prior to stimulation with PDGF (10 ng/ml) for 10 min. The cells are then harvested lysed and the proteins from the lysates are separated by SDS-PAGE and immunoblotted with an anti-phosphotyrosine antibody (4G10, Upstate Biotechnology, Lake Placid, N.Y.). The phosphotyrosine PDGF receptor bands are scanned and the concentrations of GFBs that inhibit the ability of PDGF to stimulate PDGFR tyrosine phosphorylation by 50% are determined. Data for each compound is representative of at least two independent experiments. FIG. 1 illustrates the structure of growth factor binders. GFBs are synthesized as described by Park, H. D. et al., Protein surface recognition by synthetic receptors: A route to novel sub-micromolar inhibitors for chymotrypsin. J. Am. Chem. Soc. 121, 8-13 (1999); and Hamuro, Y. et al., A calixarene with four peptide loops: An antibody mimic for recognition of protein surfaces. Angew. Chemie Int. Ed. Engl. 36, 2680-2683 (1997), each herein incorporated by reference in its respective entirety.

[5] = test system: PDGF-stimulated Erk1/Erk2 activation; assay: Inhibition of PDGF-stimulated activation of MAPK Erk1/Erk2 (p44/p42) in NIH 3T3 cells; conditions: NIH 3T3, PDGF stimulated
Description: as §1, §3

[6] = test system: IGF-1 stimulated IGF-1R tyrosine phosphorylation; assay: Inhibition of IGF-1 stimulated IGFR tyrosine phosphorylation in IGFR/3T3 cells; conditions: 100 μM; IGFR/3T3, IGF-1 stimulated
Description: as §4

[7] = read-out: (IC50) Inhibition p42
[8] = read-out: (IC50) Inhibition p44
[9] = head p42/Erk2 (p42 for GFB-132 to 137), read-out: (IC50) Inhibition p42/Erk2

Substance | IC50 [1] [µM] | % Inhibition at 100 μM p42 [2] [%] | % Inhibition at 100 μM p44 [2] | IC50 [3, 7] [µM] | IC50 [3, 8] [µM] | IC50 [4] [µM] | IC50 [5, 9] [µM] | % Inhibition at 100 μM IGF1R-Y-P [6] | IC50 [5, 8] [µM]
But-Calix scaffold with peptide loops 4-d-ADGD, (D-Ala)-Asp-Gly-Asp (SEQ ID NO. 3) ([dA]DGD; linker N-C via 3‑aminomethyl‑5‑aminobenzamide; also: peptide loops (4) attached to But-Calix scaffold) [GFB-108] | 10 | 67.8 | 80.1% | 50 | 50 | 9 | 57 | – | –
GDAD [GFB-110] | – | – | 55.4% and 47.1% | – | – | 1.7 | 7 | 40.9% and 32.4% | –
GDDD [GFB-129] | – | 2.8 | 33.4% | – | – | – | – | 3.4% | –
GDDD [GFB-136] | – | 15.0 | – | – | – | 3 | 25 | 40.6% | 24
GDDG [GFB-120] | – | 68.1 | 85.9% | – | – | 1.3 | 1.7 | 35.4% | –
GDDG [GFB-123] | – | 26.7 | 62.4% | – | – | > 50 | > 50 | 24.2% | –
GDDG [GFB-131] | – | −6.2 | 20.0% | – | – | – | – | 30.2% | –
GDDY [GFB-122] | – | 33.6 | 66.6% | – | – | 1.7 | 19 | 38.4% | –
GDDY [GFB-130] | – | −19.7 | −17.5% | – | – | – | – | 22.7% | –
GDFD [GFB-102] | – | – | – | > 100 | > 100 | > 500 | – | – | –
GDGD [GFB-103] | – | – | – | – | – | > 500 | > 500 | – | –
GDGD [GFB-104] | – | −0.19 | 22.4% | – | – | > 500 | > 500 | −28.4% | –
GDGD [GFB-107] | < 10 | 57.3 | 59.7% | – | – | 2.5 | 10 | – | –
GDGY [GFB-128] | – | −6.1 | 38.2% | – | – | 26 | > 50 | −12.0% | –
GDGY [GFB-132] | – | 11.0 | 39.4% | – | – | 0.4 | 2.9 | 30.2% | 3
GDGY [GFB-134] | – | 4.9 | 53.5% | – | – | 1.9 | 2.5 | 16.8% | 2.6
GDGY [GFB-135] | – | 0.8 | 46.1% | – | – | 1.9 | 3.2 | 16.2% | 24
GDGY [GFB-137] | – | 5.9 | 38.2% | – | – | 0.4 | 2.9 | 36.0% | 47
GDLD [GFB-109] | – | 68.3 | 79.7% | – | – | 7.5 | 15 | – | –
GDND [GFB-117] | – | 17.1 | 61.5% | – | – | 5.8 | 36 | 4.9% | –
GFB-118: But-Calix scaffold with peptide loops 4-D-2-NalDGD (SEQ ID NO. 17) ([d2Nal]DGD; linker N-C via 3‑aminomethyl‑5‑aminobenzamide; also: four loops attached to But-Calix scaffold) | – | 16.4 | 55.2% | – | – | 0.7 | 1.2 | 1.5% | –
GFB-121: But-Calix scaffold with peptide loops 4-D-AbuDGD (SEQ ID NO. 18) ([dAbu]DGD; linker N-C via 3‑aminomethyl‑5‑aminobenzamide; also: four loops attached to But-Calix scaffold) | – | 28.3 | 62.1% | – | – | 5.6 | 8.5 | 33.8% | –
GFGD [GFB-101] | > 100 | – | – | > 100 | > 100 | > 500 | > 500 | – | –
GKGF [GFB-115] | – | −12.4 | 51.9% | – | – | > 50 | > 50 | −38.3% | –
PDGD [GFB-119] | – | 29.7 | 66.2% | – | – | 20 | 32 | 16.7% | –
